According to patent US11981658B2, “Substituted aminopyridine compounds as EGFR inhibitors” (YUHAN CORPORATION, priority 2021, dated 2024):
Like-named read-outs stand apart in the source and are kept apart here.

Key:
EGFR Del19/C797S = EGFR Del19/C797S (Homo sapiens, UniProt P00533, C797S/DEL746-750); assay: Biochemical EGFR kinase inhibition assay (Lance Ultra TR-FRET), double mutant del19/C797S
Method in brief: (§1)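 In this biochemical assay, phosphorylation after a one-hour room-temperature reaction was detected with europium-labelled anti-phosphopeptide antibody at 2 nM final concentration.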

EGFR L858R/T790M/C797S = EGFR L858R/T790M/C797S (Homo sapiens, UniProt P00533, C797S/L858R/T790M); assay: Biochemical EGFR kinase inhibition assay (Lance Ultra TR-FRET), triple mutant L858R/T790M/C797S
Sequence of EGFR L858R/T790M/C797S (P00533 25-1210 T790M/C797S/L858R): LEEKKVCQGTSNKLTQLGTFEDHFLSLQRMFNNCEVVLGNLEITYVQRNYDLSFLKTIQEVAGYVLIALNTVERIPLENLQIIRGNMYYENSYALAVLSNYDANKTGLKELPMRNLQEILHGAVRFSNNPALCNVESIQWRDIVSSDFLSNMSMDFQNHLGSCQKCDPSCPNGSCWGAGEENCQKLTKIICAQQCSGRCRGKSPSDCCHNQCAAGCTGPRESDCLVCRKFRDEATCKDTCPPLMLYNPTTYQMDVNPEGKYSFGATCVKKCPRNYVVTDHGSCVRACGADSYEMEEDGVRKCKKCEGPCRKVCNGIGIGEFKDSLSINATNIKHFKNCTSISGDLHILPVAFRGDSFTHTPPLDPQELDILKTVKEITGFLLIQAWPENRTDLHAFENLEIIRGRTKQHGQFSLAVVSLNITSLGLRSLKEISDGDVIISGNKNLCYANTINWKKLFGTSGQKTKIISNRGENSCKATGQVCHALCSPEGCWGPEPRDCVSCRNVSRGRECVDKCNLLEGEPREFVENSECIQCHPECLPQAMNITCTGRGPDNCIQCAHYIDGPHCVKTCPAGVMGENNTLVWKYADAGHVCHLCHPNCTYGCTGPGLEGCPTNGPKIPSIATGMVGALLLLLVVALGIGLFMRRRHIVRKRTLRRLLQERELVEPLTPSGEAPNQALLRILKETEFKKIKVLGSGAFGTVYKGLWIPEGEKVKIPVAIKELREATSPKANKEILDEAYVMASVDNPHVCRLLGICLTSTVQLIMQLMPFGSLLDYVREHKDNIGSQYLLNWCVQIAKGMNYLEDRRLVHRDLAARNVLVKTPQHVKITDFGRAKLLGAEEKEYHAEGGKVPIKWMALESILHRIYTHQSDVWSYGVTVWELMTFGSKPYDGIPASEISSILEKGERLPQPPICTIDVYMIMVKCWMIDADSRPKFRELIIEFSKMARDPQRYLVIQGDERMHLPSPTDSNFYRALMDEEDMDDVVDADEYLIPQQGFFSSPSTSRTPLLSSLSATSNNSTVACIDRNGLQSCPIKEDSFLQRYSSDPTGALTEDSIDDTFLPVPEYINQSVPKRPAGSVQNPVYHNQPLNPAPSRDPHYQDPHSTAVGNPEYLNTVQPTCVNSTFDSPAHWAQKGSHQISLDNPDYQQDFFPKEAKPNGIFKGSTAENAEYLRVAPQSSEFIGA
Method in brief: as §1

EGFR Del19/T790M/C797S = EGFR Del19/T790M/C797S (Homo sapiens, UniProt P00533, C797S/DEL746-750/T790M); assay: Biochemical EGFR kinase inhibition assay (Lance Ultra TR-FRET), triple mutant del19/T790M/C797S
Sequence of EGFR Del19/T790M/C797S (P00533 with tags, fused parts or gaps DEL746-750/T790M/C797S): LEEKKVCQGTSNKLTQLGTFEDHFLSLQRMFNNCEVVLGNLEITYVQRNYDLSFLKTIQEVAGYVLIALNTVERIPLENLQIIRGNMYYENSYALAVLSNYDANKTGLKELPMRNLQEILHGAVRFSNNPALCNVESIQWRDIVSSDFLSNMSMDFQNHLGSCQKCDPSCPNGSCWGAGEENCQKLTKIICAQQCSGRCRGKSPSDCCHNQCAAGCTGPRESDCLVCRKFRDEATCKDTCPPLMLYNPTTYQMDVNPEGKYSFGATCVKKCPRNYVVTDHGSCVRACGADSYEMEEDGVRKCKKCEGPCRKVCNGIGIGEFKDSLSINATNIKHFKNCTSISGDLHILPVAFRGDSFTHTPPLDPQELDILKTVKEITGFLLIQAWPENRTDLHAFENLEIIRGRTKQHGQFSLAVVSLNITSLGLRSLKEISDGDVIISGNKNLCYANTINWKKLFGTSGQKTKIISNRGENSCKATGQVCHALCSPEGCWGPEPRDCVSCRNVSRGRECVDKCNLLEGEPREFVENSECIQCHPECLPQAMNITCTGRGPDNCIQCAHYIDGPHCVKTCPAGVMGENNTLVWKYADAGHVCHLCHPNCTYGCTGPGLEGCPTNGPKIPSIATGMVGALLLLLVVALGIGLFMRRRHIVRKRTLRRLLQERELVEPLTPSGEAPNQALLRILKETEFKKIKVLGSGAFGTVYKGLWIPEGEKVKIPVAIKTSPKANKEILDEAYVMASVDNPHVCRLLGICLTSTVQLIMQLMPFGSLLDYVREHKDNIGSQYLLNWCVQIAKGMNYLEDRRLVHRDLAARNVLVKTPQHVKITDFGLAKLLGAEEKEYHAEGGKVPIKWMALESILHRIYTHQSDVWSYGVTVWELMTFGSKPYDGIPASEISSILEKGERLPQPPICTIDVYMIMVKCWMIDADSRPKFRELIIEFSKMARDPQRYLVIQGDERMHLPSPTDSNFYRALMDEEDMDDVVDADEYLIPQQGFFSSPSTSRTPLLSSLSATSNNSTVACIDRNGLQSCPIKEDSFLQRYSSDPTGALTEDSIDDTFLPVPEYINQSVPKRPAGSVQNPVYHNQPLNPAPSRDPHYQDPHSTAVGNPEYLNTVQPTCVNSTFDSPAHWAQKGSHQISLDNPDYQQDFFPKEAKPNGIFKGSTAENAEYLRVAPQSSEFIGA
Method in brief: as §1

EGFR L858R/C797S = EGFR L858R/C797S (Homo sapiens, UniProt P00533, C797S/L858R); assay: Biochemical EGFR kinase inhibition assay (Lance Ultra TR-FRET), double mutant L858R/C797S
Sequence of EGFR L858R/C797S (P00533 25-1210 C797S/L858R): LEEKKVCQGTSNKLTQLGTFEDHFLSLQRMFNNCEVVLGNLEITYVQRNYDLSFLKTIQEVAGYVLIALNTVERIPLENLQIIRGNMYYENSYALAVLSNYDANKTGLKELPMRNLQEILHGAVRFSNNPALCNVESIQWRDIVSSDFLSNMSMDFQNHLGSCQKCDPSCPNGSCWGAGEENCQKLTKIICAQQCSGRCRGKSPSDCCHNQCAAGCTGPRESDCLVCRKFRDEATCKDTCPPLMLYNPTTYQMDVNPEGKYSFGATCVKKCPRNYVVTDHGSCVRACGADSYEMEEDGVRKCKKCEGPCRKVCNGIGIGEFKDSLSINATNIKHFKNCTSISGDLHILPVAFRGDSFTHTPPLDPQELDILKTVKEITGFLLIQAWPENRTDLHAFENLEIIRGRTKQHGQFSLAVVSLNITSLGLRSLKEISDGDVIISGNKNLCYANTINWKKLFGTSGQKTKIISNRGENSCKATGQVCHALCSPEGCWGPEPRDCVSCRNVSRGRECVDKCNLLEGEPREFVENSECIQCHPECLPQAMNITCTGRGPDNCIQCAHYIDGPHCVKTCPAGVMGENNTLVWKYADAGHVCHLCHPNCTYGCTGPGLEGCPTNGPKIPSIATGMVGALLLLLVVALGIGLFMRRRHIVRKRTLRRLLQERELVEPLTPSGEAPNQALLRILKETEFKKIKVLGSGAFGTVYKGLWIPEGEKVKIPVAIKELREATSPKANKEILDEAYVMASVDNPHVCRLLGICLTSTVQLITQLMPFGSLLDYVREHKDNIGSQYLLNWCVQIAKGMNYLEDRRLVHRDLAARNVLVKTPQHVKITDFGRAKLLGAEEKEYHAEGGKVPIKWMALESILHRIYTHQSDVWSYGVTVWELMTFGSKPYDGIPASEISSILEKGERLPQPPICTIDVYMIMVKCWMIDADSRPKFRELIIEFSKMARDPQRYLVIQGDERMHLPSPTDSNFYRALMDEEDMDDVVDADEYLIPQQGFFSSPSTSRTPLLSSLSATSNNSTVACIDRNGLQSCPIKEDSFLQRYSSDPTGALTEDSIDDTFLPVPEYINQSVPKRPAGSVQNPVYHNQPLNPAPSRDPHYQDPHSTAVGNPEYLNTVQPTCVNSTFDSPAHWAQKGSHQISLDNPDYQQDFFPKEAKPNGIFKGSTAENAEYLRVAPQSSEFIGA
Method in brief: as §1

EGFR wildtype (WT) = EGFR wildtype (WT) (Homo sapiens, UniProt P00533); assay: Biochemical EGFR kinase inhibition assay (Lance Ultra TR-FRET), wildtype
Sequence of EGFR wildtype (WT) (P00533 25-1210): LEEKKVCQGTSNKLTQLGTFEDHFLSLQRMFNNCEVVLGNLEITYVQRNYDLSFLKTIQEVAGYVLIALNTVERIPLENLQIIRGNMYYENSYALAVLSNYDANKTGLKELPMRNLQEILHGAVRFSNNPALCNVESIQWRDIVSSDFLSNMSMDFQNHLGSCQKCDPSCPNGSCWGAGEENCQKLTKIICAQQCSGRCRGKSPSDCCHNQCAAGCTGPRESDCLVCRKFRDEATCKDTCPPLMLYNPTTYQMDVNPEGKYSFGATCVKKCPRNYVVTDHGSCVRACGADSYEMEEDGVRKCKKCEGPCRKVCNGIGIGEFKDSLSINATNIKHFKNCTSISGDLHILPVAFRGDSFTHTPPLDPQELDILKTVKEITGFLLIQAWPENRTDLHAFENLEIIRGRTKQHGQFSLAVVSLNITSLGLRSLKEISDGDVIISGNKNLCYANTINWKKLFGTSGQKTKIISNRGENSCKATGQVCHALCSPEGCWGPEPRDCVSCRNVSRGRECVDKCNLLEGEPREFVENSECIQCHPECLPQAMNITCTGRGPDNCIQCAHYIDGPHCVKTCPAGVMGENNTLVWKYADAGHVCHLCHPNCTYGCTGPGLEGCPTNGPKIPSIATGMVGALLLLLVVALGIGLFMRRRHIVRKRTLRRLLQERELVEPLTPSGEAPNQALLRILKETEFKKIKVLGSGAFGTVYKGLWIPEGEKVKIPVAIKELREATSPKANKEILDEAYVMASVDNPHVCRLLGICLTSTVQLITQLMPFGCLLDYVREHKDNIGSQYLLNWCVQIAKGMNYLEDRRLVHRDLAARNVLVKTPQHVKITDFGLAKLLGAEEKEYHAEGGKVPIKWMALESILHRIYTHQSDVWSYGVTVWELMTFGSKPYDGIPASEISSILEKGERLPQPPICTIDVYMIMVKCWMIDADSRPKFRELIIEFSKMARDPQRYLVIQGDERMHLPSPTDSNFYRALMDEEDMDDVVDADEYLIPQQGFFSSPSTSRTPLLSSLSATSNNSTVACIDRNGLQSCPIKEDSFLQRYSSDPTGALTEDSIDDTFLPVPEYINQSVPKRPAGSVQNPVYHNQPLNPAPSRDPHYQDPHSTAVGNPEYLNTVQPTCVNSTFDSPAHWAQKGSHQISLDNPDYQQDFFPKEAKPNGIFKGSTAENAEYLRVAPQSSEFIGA
Method in brief: as §1

[1] = IC50 Del19/C797S (nM), 100 μM ATP
[2] = IC50 L858R/T790M/C797S (nM), 100 μM ATP
[3] = IC50 Del19/T790M/C797S (nM), 100 μM ATP
[4] = IC50 L858R/C797S (nM), 100 μM ATP
[5] = Km ATP, read-out: IC50 Del19/C797S (nM) Km ATP
[6] = Km ATP, read-out: IC50 L858R/T790M/C797S (nM) Km ATP
[7] = Km ATP, read-out: IC50 Del19/T790M/C797S (nM) Km ATP
[8] = Km ATP, read-out: IC50 L858R/C797S (nM) Km ATP
[9] = Km ATP, read-out: IC50 WT (nM) Km ATP

| SMILES | IC50 (EGFR Del19/C797S; [1]) [nM] | IC50 (EGFR L858R/T790M/C797S; [2]) [nM] | IC50 (EGFR Del19/T790M/C797S; [3]) [nM] | IC50 (EGFR L858R/C797S; [4]) [nM] | IC50 (EGFR wildtype (WT); IC50 WT (nM), 100 μM ATP) [nM] | IC50 (EGFR Del19/C797S; [5]) [nM] | IC50 (EGFR L858R/T790M/C797S; [6]) [nM] | IC50 (EGFR Del19/T790M/C797S; [7]) [nM] | IC50 (EGFR L858R/C797S; [8]) [nM] | IC50 (EGFR wildtype (WT); [9]) [nM] |
| --- | --- | --- | --- | --- | --- | --- | --- | --- | --- | --- |
| Cn1ncc(C#Cc2cnc(Nc3ccnc(-c4cnn(S(=O)(=O)C5CC5)c4)n3)cc2N2CCC(CCO)CC2)c1C1CC1 [Example 87, 2-(1-(5-((5-Cyclopropyl-1-methyl-1H-pyrazol-4-yl)ethynyl)-2-((2-(1-(cyclopropylsulfonyl)-1H-pyrazol-4-yl)pyrimidin-4-yl)amino)pyridin-4-yl)piperidin-4-yl)ethan-1-ol] | 26.3 | 6.2 | 2.3 | 40.5 | > 10000 |  |  |  |  |  |
| Cn1ncc(C#Cc2cnc(Nc3ccnc(-c4cnn(S(=O)(=O)C5CC5)c4)n3)cc2N[C@H]2CC[C@@H](O)CC2)c1C1CC1 [Example 88, (1s,4s)-4-((5-((5-Cyclopropyl-1-methyl-1H-pyrazol-4-yl)ethynyl)-2-((2-(1-(cyclopropylsulfonyl)-1H-pyrazol-4-yl)pyrimidin-4-yl)amino)pyridin-4-yl)amino)cyclohexan-1-ol] | 15.6 | 3.9 | 1.6 | 65 | > 10000 |  |  |  |  |  |
| Cn1cc(C#Cc2cnc(Nc3ccnc(-c4cnn(S(=O)(=O)C5CC5)c4)n3)cc2N2CCC(O)CC2)c(C(F)(F)F)n1 [Example 89, 1-(2-((2-(1-(Cyclopropylsulfonyl)-1H-pyrazol-4-yl)pyrimidin-4-yl)amino)-5-((1-methyl-3-(trifluoromethyl)-1H-pyrazol-4-yl)ethynyl)pyridin-4-yl)piperidin-4-ol] | 63.8 | 19.6 | 4.3 | 183 | > 10000 |  |  |  |  |  |
| Cn1cc(C#Cc2cnc(Nc3ccnc(-c4cnn(S(=O)(=O)C5CC5)c4)n3)cc2N2CCC(CO)CC2)c(C(F)(F)F)n1 [Example 90, (1-(2-((2-(1-(Cyclopropylsulfonyl)-1H-pyrazol-4-yl)pyrimidin-4-yl)amino)-5-((1-methyl-3-(trifluoromethyl)-1H-pyrazol-4-yl)ethynyl)pyridin-4-yl)piperidin-4-yl)methanol] | 28.5 | 11.8 | 3.6 | 37.2 | > 10000 |  |  |  |  |  |
| Cn1cc(C#Cc2cnc(Nc3ccnc(-c4cnn(S(=O)(=O)C5CC5)c4)n3)cc2N2CCC(CCO)CC2)c(C(F)(F)F)n1 [Example 91, 2-(1-(2-((2-(1-(Cyclopropylsulfonyl)-1H-pyrazol-4-yl)pyrimidin-4-yl)amino)-5-((1-methyl-3-(trifluoromethyl)-1H-pyrazol-4-yl)ethynyl)pyridin-4-yl)piperidin-4-yl)ethan-1-ol] | 76.8 | 13.9 | 5.6 | 166 | > 10000 |  |  |  |  |  |
| Cn1cc(C#Cc2cnc(Nc3ccnc(-c4cnn(S(=O)(=O)C5CC5)c4)n3)cc2N[C@H]2CC[C@@H](O)CC2)c(C(F)(F)F)n1 [Example 92, (1s,4s)-4-((2-((2-(1-(Cyclopropylsulfonyl)-1H-pyrazol-4-yl)pyrimidin-4-yl)amino)-5-((1-methyl-3-(trifluoromethyl)-1H-pyrazol-4-yl)ethynyl)pyridin-4-yl)amino)cyclohexan-1-ol] | 67.5 | 11.3 | 5.5 | 80.7 | > 10000 |  |  |  |  |  |
| O=C1CCN(c2cc(Nc3ccnc(-c4cnn(S(=O)(=O)C5CC5)c4)n3)ncc2C#Cc2cnn(C3CCOCC3)c2)CC1 [Example 93, 1-(2-((2-(1-(Cyclopropylsulfonyl)-1H-pyrazol-4-yl)pyrimidin-4-yl)amino)-5-((1-(tetrahydro-2H-pyran-4-yl)-1H-pyrazol-4-yl)ethynyl)pyridin-4-yl)piperidin-4-one] | 64.8 | 18.2 | 2.2 | 372 | > 10000 | 43 | 2.5 | 1.9 | 18.3 | 260 |
| O=S(=O)(C1CC1)n1cc(-c2nccc(Nc3cc(N[C@H]4CC[C@@H](O)CC4)c(C#Cc4cnn(C5CCOCC5)c4)cn3)n2)cn1 [Example 94, (1s,4s)-4-((2-((2-(1-(Cyclopropylsulfonyl)-1H-pyrazol-4-yl)pyrimidin-4-yl)amino)-5-((1-(tetrahydro-2H-pyran-4-yl)-1H-pyrazol-4-yl)ethynyl)pyridin-4-yl)amino)cyclohexan-1-ol] | 8.8 | 3.6 | 2.1 | 30.5 | > 10000 | 6.7 | 1.4 | 2 | 4.3 | 32.3 |
| CC1(CO)CCN(c2cc(Nc3ccnc(-c4cnn(S(=O)(=O)C5CC5)c4)n3)ncc2C#Cc2cnn(C3CCOCC3)c2)CC1 [Example 95, (1-(2-((2-(1-(Cyclopropylsulfonyl)-1H-pyrazol-4-yl)pyrimidin-4-yl)amino)-5-((1-(tetrahydro-2H-pyran-4-yl)-1H-pyrazol-4-yl)ethynyl)pyridin-4-yl)-4-methylpiperidin-4-yl)methanol] | 2.3 | 2 | 1.6 | 4.1 | 1040 | 2.7 | 0.9 | 1.5 | 1.4 | 5 |
| O=S(=O)(C1CC1)n1cc(-c2nccc(Nc3cc(N4CCC(F)(CO)CC4)c(C#Cc4cnn(C5CCOCC5)c4)cn3)n2)cn1 [Example 96, (1-(2-((2-(1-(Cyclopropylsulfonyl)-1H-pyrazol-4-yl)pyrimidin-4-yl)amino)-5-((1-(tetrahydro-2H-pyran-4-yl)-1H-pyrazol-4-yl)ethynyl)pyridin-4-yl)-4-fluoropiperidin-4-yl)methanol] | 3.1 | 2.1 | 1 | 8.1 | > 10000 | 3 | 0.6 | 1 | 1.5 | 12.8 |
| O=S(=O)(C1CC1)n1cc(-c2nccc(Nc3cc(N4CCC(F)CC4)c(C#Cc4cnn(C5CCOCC5)c4)cn3)n2)cn1 [Example 97, 2-(1-(Cyclopropylsulfonyl)-1H-pyrazol-4-yl)-N-(4-(4-fluoropiperidin-1-yl)-5-((1-(tetrahydro-2H-pyran-4-yl)-1H-pyrazol-4-yl)ethynyl)pyridin-2-yl)pyrimidin-4-amine] | 25.1 | 5.9 | 1.8 | 162 | > 10000 | 18.3 | 1.7 | 1.8 | 9.2 | 86.5 |
| COC1CCN(c2cc(Nc3ccnc(-c4cnn(S(=O)(=O)C5CC5)c4)n3)ncc2C#Cc2cnn(C3CCOCC3)c2)CC1 [Example 98, 2-(1-(Cyclopropylsulfonyl)-1H-pyrazol-4-yl)-N-(4-(4-methoxypiperidin-1-yl)-5-((1-(tetrahydro-2H-pyran-4-yl)-1H-pyrazol-4-yl)ethynyl)pyridin-2-yl)pyrimidin-4-amine] | 21.1 | 9.9 | 2.1 | 101 | > 10000 | 15.5 | 2.3 | 2.3 | 7.5 | 72 |
